Measurements: ChEMBL document CHEMBL5696442, “Discovery of type II inhibitors of TGFβ-activated kinase 1 (TAK1) and mitogen-activated protein kinase kinase kinase kinase 2 (MAP4K2)” (J Med Chem, 2015)
Calls of active or inactive are those of the source. The rule behind the calls is not given here.

Assays:
[1] = target: MAP/microtubule affinity-regulating kinase 4 (Homo sapiens) (UniProt Q96L34); test: Inhibition of MARK4 (unknown origin) at 10 uM by Ambit Kinomescan binding assay
[2] = target: Tyrosine-protein kinase ABL (Homo sapiens) (UniProt P00519+P42684); test: Inhibition of ABL1/2 ACT labeling site in human Huh-7 cells at 10 uM by KiNativ Profiling analysis relative to control; format: cell-based
Chain of Tyrosine-protein kinase ABL (Homo sapiens) (P00519 whole entry, looked up): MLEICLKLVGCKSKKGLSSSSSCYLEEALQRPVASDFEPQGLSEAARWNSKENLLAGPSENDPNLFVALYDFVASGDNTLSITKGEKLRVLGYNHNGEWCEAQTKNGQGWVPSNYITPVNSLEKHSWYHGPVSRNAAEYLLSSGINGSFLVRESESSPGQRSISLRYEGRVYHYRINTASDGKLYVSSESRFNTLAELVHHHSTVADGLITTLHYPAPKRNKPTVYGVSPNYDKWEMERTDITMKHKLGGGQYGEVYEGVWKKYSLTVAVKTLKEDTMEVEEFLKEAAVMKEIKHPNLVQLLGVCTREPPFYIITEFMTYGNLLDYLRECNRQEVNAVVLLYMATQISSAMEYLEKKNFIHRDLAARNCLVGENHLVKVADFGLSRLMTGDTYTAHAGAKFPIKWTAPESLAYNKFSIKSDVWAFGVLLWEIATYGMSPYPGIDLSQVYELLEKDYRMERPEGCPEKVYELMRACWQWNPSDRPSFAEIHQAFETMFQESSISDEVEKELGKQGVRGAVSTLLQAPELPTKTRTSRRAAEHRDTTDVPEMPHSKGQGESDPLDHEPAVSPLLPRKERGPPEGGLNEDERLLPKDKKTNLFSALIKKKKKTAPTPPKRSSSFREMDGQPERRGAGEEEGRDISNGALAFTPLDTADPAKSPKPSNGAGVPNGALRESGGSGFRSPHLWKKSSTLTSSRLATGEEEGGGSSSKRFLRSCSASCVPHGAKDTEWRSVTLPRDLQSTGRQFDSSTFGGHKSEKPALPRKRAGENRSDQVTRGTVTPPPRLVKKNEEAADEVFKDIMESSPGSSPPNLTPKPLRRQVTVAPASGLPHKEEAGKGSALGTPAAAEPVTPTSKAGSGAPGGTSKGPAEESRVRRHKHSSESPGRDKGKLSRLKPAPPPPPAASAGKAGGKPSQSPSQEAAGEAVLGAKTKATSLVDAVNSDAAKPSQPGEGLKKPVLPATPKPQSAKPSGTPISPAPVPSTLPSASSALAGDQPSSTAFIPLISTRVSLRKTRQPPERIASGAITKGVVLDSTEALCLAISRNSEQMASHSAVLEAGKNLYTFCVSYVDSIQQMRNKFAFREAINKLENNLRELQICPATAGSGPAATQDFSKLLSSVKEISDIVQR
Chain of Tyrosine-protein kinase ABL (Homo sapiens) (P42684 whole entry, looked up): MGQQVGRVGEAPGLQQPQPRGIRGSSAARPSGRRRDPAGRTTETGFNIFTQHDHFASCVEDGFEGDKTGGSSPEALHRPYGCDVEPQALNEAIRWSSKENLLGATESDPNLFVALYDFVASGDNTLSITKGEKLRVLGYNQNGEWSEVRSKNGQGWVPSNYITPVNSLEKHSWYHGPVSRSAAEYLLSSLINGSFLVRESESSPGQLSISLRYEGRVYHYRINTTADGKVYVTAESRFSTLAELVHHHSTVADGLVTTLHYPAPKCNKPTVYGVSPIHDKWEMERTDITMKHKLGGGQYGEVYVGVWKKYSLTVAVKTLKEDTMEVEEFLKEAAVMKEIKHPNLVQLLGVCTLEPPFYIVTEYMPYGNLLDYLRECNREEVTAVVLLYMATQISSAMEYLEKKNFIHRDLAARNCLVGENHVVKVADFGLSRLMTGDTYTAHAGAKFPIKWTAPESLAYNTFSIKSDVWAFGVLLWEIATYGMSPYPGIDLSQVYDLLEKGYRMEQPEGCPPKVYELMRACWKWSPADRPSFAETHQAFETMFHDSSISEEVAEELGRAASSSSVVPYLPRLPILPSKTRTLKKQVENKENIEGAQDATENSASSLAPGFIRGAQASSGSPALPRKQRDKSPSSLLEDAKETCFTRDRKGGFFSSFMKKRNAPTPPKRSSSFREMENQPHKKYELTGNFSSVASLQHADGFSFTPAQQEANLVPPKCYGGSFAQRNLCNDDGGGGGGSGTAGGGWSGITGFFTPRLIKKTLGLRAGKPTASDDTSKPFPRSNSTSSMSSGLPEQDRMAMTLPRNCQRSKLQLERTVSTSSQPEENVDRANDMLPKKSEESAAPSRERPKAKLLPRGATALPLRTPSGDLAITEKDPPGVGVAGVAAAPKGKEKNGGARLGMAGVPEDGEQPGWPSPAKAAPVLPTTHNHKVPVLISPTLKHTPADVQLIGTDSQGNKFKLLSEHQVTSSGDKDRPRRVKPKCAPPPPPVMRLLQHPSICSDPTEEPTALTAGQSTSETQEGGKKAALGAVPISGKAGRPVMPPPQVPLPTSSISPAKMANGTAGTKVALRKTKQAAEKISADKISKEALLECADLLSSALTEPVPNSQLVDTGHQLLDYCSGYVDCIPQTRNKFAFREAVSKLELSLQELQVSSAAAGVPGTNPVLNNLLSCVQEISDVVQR

[3] = target: Mitogen-activated protein kinase 7 (Homo sapiens) (UniProt Q13164); test: Inhibition of Erk5 K2 labeling site in human Huh-7 cells at 1 uM by KiNativ Profiling analysis relative to control; format: cell-based
Chain of Mitogen-activated protein kinase 7 (Homo sapiens) (Q13164 2-816 limits assumed): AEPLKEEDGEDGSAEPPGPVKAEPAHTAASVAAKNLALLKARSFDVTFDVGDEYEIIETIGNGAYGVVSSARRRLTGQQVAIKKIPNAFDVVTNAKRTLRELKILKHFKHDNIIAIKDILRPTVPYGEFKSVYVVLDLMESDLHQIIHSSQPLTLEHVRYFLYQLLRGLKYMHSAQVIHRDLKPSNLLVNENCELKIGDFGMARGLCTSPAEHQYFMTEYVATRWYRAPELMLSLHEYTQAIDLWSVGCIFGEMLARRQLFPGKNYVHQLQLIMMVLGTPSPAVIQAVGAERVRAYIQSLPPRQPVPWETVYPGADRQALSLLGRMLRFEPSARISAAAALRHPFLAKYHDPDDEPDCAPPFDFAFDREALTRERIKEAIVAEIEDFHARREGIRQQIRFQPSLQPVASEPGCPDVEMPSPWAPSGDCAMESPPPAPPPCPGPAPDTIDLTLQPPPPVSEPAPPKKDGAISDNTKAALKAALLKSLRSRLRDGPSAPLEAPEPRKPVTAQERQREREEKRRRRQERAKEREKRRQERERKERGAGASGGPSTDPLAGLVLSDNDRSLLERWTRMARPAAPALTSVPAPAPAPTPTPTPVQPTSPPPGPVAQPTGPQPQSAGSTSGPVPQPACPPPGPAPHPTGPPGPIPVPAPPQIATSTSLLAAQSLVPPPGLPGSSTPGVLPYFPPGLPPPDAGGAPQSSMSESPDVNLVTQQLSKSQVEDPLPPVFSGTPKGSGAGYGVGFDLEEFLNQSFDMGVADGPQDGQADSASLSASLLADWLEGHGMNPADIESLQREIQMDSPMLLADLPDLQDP

[4] = target: T1, Phosphatidylinositol 5-phosphate 4-kinase type-2 alpha (Homo sapiens) (UniProt P48426); test: Inhibition of PIP5K2A C2 labeling site in human Huh-7 cells at 10 uM by KiNativ Profiling analysis relative to control; format: cell-based
T1 sequence (whole entry): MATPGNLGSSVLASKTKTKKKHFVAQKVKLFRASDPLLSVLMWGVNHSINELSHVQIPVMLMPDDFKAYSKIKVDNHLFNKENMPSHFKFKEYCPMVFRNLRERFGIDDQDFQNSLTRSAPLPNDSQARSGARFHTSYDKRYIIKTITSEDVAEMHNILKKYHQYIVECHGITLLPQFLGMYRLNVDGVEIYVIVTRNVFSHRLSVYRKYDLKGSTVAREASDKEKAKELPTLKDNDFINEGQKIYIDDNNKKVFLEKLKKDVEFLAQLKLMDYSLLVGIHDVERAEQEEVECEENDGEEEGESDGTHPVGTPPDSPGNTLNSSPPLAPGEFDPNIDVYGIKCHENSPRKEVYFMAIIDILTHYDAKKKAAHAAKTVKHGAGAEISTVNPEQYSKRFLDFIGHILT

[5] = target: MAST1/MAST2 (Homo sapiens) (UniProt Q9Y2H9+Q6P0Q8); test: Inhibition of MAST1/2 K2 labeling site in human Huh-7 cells at 1 uM by KiNativ Profiling analysis relative to control; format: cell-based
[6] = target: 5'-AMP-activated protein kinase catalytic subunit alpha-1 (Homo sapiens) (UniProt Q13131); test: Inhibition of AMPKa1 Lys2 labeling site in human Huh-7 cell lysate at 1 uM by KiNativ Profiling analysis relative to control; format: subcellular
[7] = target: Mitogen-activated protein kinase kinase kinase 20 (Homo sapiens, UniProt Q9NYL2); test: Inhibition of ZAK Lys1 labeling site in human Huh-7 cells at 1 uM by KiNativ Profiling analysis relative to control; format: cell-based
Chain of Mitogen-activated protein kinase kinase kinase 20 (Q9NYL2 2-800 limits assumed): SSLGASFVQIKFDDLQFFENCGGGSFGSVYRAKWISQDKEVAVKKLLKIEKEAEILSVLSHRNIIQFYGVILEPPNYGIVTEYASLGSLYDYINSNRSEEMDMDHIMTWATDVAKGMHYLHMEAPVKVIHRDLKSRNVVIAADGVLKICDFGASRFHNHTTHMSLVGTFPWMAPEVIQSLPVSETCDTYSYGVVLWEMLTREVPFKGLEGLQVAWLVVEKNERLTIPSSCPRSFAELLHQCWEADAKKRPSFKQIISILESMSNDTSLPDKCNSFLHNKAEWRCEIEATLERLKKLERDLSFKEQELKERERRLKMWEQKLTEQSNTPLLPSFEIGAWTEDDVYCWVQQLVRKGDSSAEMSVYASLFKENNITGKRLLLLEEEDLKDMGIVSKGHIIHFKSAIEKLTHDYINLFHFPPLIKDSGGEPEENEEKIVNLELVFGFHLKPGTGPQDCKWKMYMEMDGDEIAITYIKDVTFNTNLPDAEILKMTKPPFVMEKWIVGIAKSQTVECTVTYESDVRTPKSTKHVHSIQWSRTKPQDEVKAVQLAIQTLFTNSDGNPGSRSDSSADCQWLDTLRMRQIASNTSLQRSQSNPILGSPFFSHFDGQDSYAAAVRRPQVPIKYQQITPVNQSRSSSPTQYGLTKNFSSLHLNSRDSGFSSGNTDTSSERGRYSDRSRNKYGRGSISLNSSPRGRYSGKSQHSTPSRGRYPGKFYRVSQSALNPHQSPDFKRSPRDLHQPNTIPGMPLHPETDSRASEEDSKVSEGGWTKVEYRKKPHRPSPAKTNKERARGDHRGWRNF

[8] = target: Serine/threonine-protein kinase VRK2 (Homo sapiens) (UniProt Q86Y07); test: Inhibition of VRK2 Lys2 labeling site in human Huh-7 cells at 1 uM by KiNativ Profiling analysis relative to control; format: cell-based
[9] = target: Serine/threonine-protein kinase PAK 5 (Homo sapiens) (UniProt Q9P286); test: Inhibition of PAK7 (unknown origin) at 1 uM by Ambit Kinomescan binding assay relative to control
Chain of Serine/threonine-protein kinase PAK 5 (Homo sapiens) (Q9P286 whole entry, looked up): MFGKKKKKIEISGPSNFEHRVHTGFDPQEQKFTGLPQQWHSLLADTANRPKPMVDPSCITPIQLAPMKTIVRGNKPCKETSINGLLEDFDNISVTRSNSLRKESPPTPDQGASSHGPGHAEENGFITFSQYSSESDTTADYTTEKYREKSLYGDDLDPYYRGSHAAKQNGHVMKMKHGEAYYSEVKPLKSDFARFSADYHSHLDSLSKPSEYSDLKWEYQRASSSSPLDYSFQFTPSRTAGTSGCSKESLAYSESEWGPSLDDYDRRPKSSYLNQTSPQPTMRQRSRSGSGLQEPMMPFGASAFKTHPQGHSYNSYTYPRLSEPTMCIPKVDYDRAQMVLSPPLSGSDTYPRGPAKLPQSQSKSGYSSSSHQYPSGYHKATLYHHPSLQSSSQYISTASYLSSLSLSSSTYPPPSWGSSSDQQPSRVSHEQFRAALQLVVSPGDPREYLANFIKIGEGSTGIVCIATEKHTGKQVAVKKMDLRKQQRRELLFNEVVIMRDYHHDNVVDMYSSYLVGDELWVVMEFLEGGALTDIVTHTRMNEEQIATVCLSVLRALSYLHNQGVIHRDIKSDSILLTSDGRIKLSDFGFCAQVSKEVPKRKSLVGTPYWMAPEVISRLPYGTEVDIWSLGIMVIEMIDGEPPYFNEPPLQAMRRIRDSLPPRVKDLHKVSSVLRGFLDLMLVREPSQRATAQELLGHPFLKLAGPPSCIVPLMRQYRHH

[10] = target: Cyclin-dependent kinase 7 (Homo sapiens) (UniProt P50613); test: Inhibition of CDK7 Lys2 labeling site in human A-375 cells at 5 uM by KiNativ Profiling analysis relative to control; format: cell-based
Chain of Cyclin-dependent kinase 7 (Homo sapiens) (P50613 whole entry): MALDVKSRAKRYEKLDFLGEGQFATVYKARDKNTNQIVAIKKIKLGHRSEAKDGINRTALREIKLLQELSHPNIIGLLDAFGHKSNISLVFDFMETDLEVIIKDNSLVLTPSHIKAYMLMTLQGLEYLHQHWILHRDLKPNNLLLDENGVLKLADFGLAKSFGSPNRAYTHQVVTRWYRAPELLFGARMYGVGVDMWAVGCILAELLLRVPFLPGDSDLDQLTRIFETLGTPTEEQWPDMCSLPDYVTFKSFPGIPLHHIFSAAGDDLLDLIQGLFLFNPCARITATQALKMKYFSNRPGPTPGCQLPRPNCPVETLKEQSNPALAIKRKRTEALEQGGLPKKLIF

[11] = target: Putative phosphatidylinositol 4-kinase alpha-like protein P2 (Homo sapiens) (UniProt A4QPH2); test: Inhibition of PI4KAP2 ATP labeling site in human A-375 cells at 0.5 uM by KiNativ Profiling analysis relative to control; format: cell-based
[12] = target: T2, Inhibitor of nuclear factor kappa-B kinase subunit epsilon (Homo sapiens) (UniProt Q14164); test: Inhibition of IKK-epsilon (unknown origin) at 1 uM by Ambit Kinomescan binding assay relative to control; values are per cent of control
T2 sequence (whole entry): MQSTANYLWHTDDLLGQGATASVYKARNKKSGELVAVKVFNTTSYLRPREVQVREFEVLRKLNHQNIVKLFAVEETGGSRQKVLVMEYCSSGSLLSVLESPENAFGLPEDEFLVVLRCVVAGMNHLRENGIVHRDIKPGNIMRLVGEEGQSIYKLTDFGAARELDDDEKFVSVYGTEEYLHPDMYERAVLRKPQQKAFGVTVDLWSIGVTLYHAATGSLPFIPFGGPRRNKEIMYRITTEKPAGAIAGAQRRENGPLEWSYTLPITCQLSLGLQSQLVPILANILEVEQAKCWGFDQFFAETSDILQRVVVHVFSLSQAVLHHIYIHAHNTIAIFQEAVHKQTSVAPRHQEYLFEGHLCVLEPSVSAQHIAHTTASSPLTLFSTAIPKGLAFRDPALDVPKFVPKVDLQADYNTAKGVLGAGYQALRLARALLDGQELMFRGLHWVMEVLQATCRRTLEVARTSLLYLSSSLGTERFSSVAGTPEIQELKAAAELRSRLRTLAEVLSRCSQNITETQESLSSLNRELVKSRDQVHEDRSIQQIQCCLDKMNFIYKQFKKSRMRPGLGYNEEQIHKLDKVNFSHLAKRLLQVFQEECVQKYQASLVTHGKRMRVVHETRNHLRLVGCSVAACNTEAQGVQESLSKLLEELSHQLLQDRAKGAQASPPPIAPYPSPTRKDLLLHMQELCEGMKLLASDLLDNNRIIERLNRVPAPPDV

`CCN1CCN(Cc2ccc(NC(=O)c3ccc(C)c(Oc4ccnc5[nH]ccc45)c3)cc2C(F)(F)F)CC1` was tested, and the inhibition [1] was “inactive”, the inhibition [2] was 98.4% and the inhibition [3] was 14.6%. For the same compound, the inhibition [4] was 1.3% and the inhibition [5] was -7.1%.

`CNc1cc(Oc2cc(C(=O)Nc3cc(N4CCN(C)CC4)cc(C(F)(F)F)c3)ccc2C)ncn1` showed an inhibition [6] of 0.5%, an inhibition [7] of 13.8% and an inhibition [8] of 40.4%.

`CCN1CCN(Cc2ccc(NC(=O)c3ccc(C)c(/C=C/c4cnc5[nH]ccc5c4OC)c3)cc2C(F)(F)F)CC1` was tested, and the inhibition [9] was 70%, the inhibition [10] was 38.7% and the inhibition [11] was -8%. For the same compound, the residual activity [12] was 100%.
